Reference: patent US10633394B2, “Heterocyclic derivatives and use thereof” (C & C RESEARCH LABORATORIES, priority 2014, dated 2020)

Columns and labels:
Type in all cases: cell-based
[1] = biological target: T1, STAT3 (Homo sapiens, UniProt P40763); test: STAT3 reporter gene (luciferase) assay in LNCaP stable cell line stimulated with IL-6; settings: LNCaP stable cell line (pSTAT3-TA-luc), IL-6 10 ng/mL, 24 hours
T1 construct: plasmid pSTAT3-TA-luc), which contains a stably operating STAT3 promoter; endogenous in cells
Summary of the method: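 LNCaP cells stably carrying pSTAT3-TA-luc, in RPMI1640 with 3% DCC-FBS, cultured 24 hours, then treated with compound at various concentrations plus IL-6 (final 10 ng/mL) for 24 hours at 37° C. Luciferase measured in lysates; parallel plate read for viability by CellTiter-Glo.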

[2] = biological target: T2, STAT1 (Homo sapiens, UniProt P42224); test: STAT1 reporter gene (luciferase) assay in U2OS stable cell line stimulated with IFN-γ; settings: U2OS stable cell line (pGL4-STAT1-TA-luc), IFN-γ 50 ng/mL, 8 hours; read-out: IC50 (μM) pSTAT1
T2 construct: pGL4-STAT1-TA-luc), which contains a stably operating STAT1 promoter; endogenous in cells
T2 sequence (P42224 1-750): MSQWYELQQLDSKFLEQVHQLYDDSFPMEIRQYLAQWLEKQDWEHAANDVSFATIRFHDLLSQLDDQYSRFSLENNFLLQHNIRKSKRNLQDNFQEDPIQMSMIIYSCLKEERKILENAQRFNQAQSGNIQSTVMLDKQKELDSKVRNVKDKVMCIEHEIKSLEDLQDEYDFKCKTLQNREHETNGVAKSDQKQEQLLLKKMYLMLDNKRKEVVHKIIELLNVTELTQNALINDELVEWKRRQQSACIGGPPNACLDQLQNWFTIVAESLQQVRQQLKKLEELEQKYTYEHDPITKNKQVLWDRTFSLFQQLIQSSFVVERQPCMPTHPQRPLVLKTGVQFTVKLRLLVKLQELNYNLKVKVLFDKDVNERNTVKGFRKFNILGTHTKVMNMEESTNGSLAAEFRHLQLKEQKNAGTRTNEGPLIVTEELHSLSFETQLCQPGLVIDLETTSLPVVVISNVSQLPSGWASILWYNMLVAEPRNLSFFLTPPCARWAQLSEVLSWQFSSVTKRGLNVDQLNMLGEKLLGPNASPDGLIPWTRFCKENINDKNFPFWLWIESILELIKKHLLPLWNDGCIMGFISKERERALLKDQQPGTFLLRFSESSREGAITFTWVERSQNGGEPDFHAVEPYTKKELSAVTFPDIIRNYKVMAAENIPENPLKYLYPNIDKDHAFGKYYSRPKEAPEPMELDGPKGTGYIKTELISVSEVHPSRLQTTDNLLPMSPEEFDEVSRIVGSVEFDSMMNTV
Method: 1-2) Experiment on the Inhibition of STAT1 Activity
A human osteosarcoma cell line (U2OS stable cell line; pGL4-STAT1-TA-luc), which contains a stably operating STAT1 promoter, was cultured in McCoy 5′A medium (Cat No. 16600, Life Technologies) containing 10% FBS (Cat No. SH30396, Thermo Scientific) and 1000 μg/mL G418 solution (Cat No. 04 727 894 001, Roche). The reporter gene assay using U2OS stable cell line was performed in McCoy 5′A medium containing 10% FBS without G-418 solution. U2OS stable cells were plated in two (2) white 96-well plates with 25,000 cells/50 μL in each well. […] The plates were observed under microscope and drug precipitation and particular findings were investigated and recorded.
The luciferase assay and the cell viability assay were performed respectively with one of two plates. […] After shaking the plate for 30 minutes, luciferase activities of each well were measured in a PHERAstar™ microplate reader (BMG LABTECH) using a luciferase assay system (Cat No. E1501, Promega). For the cell viability assay, the 96-well plate was placed at room temperature for 30 minutes, added with 20 μL/well of CellTiter-Glo solution (Cat No. G7573, Promega), and shaken for 10 minutes in order to measure cytotoxicity caused by the compounds listed in Examples with a PHERAstar™ microplate reader (BMG LABTECH). […]

[3] = system: NCI-N87; test: Cell growth inhibition assay (CellTiter-Glo), stomach cancer cell line NCI-N87; settings: NCI-N87 cells, 96 hours
Summary of the method: (§1)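 Cells seeded at 5,000/well (NCI-N87) or 10,000/well (MDA-MB-468) and exposed to serially diluted compounds for 96 h at 37 °C, NCI-N87 under 5% CO2 and MDA-MB-468 in air. Viability read by CellTiter-Glo luminescence; cell-free wells served as negative control and 0.1% DMSO wells as positive control.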

[4] = system: MDA-MB-468; test: Cell growth inhibition assay (CellTiter-Glo), breast cancer cell line MDA-MB-468; settings: MDA-MB-468 cells, 96 hours
Summary of the method: as §1

T1 sequence (P40763 whole entry): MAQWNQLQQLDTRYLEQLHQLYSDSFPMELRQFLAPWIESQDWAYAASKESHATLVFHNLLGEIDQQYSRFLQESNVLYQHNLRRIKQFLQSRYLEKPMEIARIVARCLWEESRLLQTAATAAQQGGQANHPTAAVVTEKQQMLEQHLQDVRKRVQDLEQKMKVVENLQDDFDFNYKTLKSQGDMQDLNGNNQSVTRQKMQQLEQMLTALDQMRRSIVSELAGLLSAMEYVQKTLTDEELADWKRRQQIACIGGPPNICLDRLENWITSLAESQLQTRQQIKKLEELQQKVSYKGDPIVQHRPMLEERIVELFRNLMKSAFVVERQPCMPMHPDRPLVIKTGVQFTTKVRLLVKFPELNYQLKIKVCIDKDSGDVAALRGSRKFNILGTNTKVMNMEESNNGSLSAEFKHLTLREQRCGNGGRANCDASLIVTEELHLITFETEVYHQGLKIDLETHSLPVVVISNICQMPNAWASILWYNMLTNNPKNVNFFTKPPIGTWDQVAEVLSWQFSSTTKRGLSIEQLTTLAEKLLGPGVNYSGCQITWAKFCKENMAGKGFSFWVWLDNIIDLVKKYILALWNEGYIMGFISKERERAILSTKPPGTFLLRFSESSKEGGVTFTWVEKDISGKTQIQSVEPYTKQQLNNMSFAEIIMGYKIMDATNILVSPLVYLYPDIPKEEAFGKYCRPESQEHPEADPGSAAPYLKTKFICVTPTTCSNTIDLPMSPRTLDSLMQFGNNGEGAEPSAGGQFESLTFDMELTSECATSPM

## N-(2-chloro-6-(5-chloro-2-methylphenoxy)pyridin-4-yl)-4-(methylsulfonyl)-3,4-dihydro-2H-thieno[3,2-g]chromene-7-carboxamide [Example 37]
[1]
  IC50: 0.0062 µM
[2]
  IC50: > 50 µM
[3]
  IC50: 0.0095 µM
[4]
  IC50: 0.0047 µM

## tert-butyl 7-((2-chloro-6-(4-chlorophenoxy)pyridin-4-yl)carbamoyl)-1-(methylsulfonyl)-2,3-dihydrothieno[2,3-g]quinoxaline-4(1H)-carboxylate [Example 5]
[1]
  IC50: 0.76 µM
[2]
  IC50: > 50 µM
[3]
  IC50: 0.72 µM
